Laboratory results: the supplement of paper PMC10627819

What was measured:
B. subtilis 168 [1] = experiment: Bliss interaction score (quartile over a dose matrix) (fitness difference); higher = more antagonism (negative = synergy)
Summary of the method: (§1)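 The Bliss score subtracts expected fitness, the product of the single-drug fitness values, from observed fitness. Fitness is plate-normalised OD595 at entry into stationary phase, relative to the robust no-drug mean and capped at 1, with single-drug fitness inferred from combinations. Summaries are quartiles over technical, biological and donor/recipient replicates.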

S. aureus Newman [2] = experiment: as above
Summary of the method: as §1

S. aureus DSM 20231 [3] = experiment: as above
Summary of the method: as §1

S. pneumoniae D39V [4] = experiment: as above
Summary of the method: as §1

B. subtilis 168 [5] = experiment: fitness (endpoint OD595 vs no drug) (fraction); higher = more growth
Summary of the method: (§2)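 Volumes were 30 µl per well, or 55 µl for S. pneumoniae, in 384-well plates inoculated at OD595 0.01. Media were TSB, LB Lennox or CY at 37 °C, and OD595 was read every 30 min for 14 h with first-reading background subtraction. Fitness is the ratio of optical density at stationary-phase entry to the robust mean of no-drug controls. That ratio is capped at 1.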

S. aureus Newman [6] = experiment: as above
Summary of the method: as §2

S. aureus DSM 20231 [7] = experiment: as above
Summary of the method: as §2

S. pneumoniae D39V [8] = experiment: as above
Summary of the method: as §2
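Wherever Bliss interaction score (quartile over a dose matrix) is given: first quartile when negative (synergy) and third quartile when positive (antagonism).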

C[n+]1ccc(-c2cc[n+](C)cc2)cc1 [Paraquat] + Cc1cc(NS(=O)(=O)c2ccc(N)cc2)no1 [Sulfamethoxazol]
Settings | Bliss interaction score
B. subtilis 168 [1] | 0.0341
S. aureus DSM 20231 [3] | -0.0548
S. aureus Newman [2] | 0.0523
S. pneumoniae D39V [4] | -0.0314

fitness, one replicate
Settings | first compound 1.25 µg/mL | first compound 2.5 µg/mL | first compound 5 µg/mL
B. subtilis 168 [5], partner 0.5 µg/mL | 0.922 | ≥ 1 | 0.82
S. aureus Newman [6], partner 8 µg/mL | 0.949 | 0.818 | 0.874

fitness
Settings | partner 1 µg/mL | partner 2 µg/mL | partner 4 µg/mL
B. subtilis 168 [5], first compound 1.25 µg/mL | 0.928 | 0.901 | 0.976
B. subtilis 168 [5], first compound 2.5 µg/mL | 0.901 | 0.883 | 0.911
B. subtilis 168 [5], first compound 5 µg/mL | 0.821 | 0.823 | 0.853
S. aureus DSM 20231 [7], first compound 1.25 µg/mL | 0.952 | 0.959 | 0.946
S. aureus DSM 20231 [7], first compound 2.5 µg/mL | 0.882 | 0.866 | 0.842
S. aureus DSM 20231 [7], first compound 5 µg/mL | 0.812 | 0.868 | 0.885
S. aureus Newman [6], first compound 1.25 µg/mL | 0.977 | 0.946 | 0.915
S. aureus Newman [6], first compound 2.5 µg/mL | 0.985 | 0.964 | –
S. aureus Newman [6], first compound 5 µg/mL | 0.928 | 0.969 | 0.881
S. pneumoniae D39V [8], first compound 1.5 µg/mL | 0.979 | 0.971 | 0.926
S. pneumoniae D39V [8], first compound 3 µg/mL | 0.966 | 0.992 | 0.931
S. pneumoniae D39V [8], first compound 6 µg/mL | 0.995 | 0.986 | 0.94

Cn1c2cccc(=O)c-2nc2ccccc21 [Pyocyanin] + CC1=C\[C@@H](O)CC(=O)Cc2nc(co2)C(=O)N2CCC=C2C(=O)O[C@H](C(C)C)[C@H](C)/C=C/C(=O)NC\C=C\1 [Virginiamycin M1]
Settings | Bliss interaction score
B. subtilis 168 [1] | -0.0635
S. aureus DSM 20231 [3] | -0.0636
S. aureus Newman [2] | 0.0515
S. pneumoniae D39V [4] | 0.0505

fitness
Settings | B. subtilis 168 [5] | S. aureus DSM 20231 [7] | S. aureus Newman [6] | S. pneumoniae D39V [8]
first compound 0.325 µg/mL, partner 0.5 µg/mL | – | – | – | ≥ 1
first compound 0.325 µg/mL, partner 1 µg/mL | – | – | – | ≥ 1
first compound 0.325 µg/mL, partner 2 µg/mL | – | – | – | 0.969
first compound 0.65 µg/mL, partner 0.5 µg/mL | – | – | – | ≥ 1
first compound 0.65 µg/mL, partner 1 µg/mL | – | – | – | ≥ 1
first compound 0.65 µg/mL, partner 2 µg/mL | – | – | – | 0.992
first compound 1.25 µg/mL, partner 0.0625 µg/mL | 0.924 | 0.883 | 0.823 | –
first compound 1.25 µg/mL, partner 0.125 µg/mL | 0.89 | 0.923 | 0.833 | –
first compound 1.25 µg/mL, partner 0.25 µg/mL | 0.885 | 0.808 | 0.823 | –
first compound 1.3 µg/mL, partner 2 µg/mL | – | – | – | 0.828
first compound 2.5 µg/mL, partner 0.0625 µg/mL | 0.862 | 0.854 | 0.752 | –
first compound 2.5 µg/mL, partner 0.125 µg/mL | 0.84 | 0.86 | 0.766 | –
first compound 2.5 µg/mL, partner 0.25 µg/mL | 0.857 | 0.89 | 0.776 | –
first compound 5 µg/mL, partner 0.0625 µg/mL | 0.734 | 0.562 | 0.369 | –
first compound 5 µg/mL, partner 0.125 µg/mL | 0.741 | 0.589 | 0.422 | –
first compound 5 µg/mL, partner 0.25 µg/mL | 0.758 | 0.621 | 0.352 | –

fitness, one replicate
Settings | partner 0.15 µg/mL | partner 0.3 µg/mL | partner 0.5 µg/mL | partner 1 µg/mL | partner 2 µg/mL
S. aureus DSM 20231 [7], first compound 1.25 µg/mL | – | – | 0.913 | 0.882 | –
S. aureus DSM 20231 [7], first compound 2.5 µg/mL | – | – | 0.816 | 0.787 | –
S. aureus DSM 20231 [7], first compound 5 µg/mL | – | – | 0.556 | 0.616 | –
S. aureus Newman [6], first compound 1.25 µg/mL | – | – | 0.921 | ≥ 1 | 0.92
S. aureus Newman [6], first compound 2.5 µg/mL | – | – | 0.939 | 0.965 | 0.952
S. aureus Newman [6], first compound 5 µg/mL | – | – | 0.844 | 0.885 | 0.734
S. pneumoniae D39V [8], first compound 0.325 µg/mL | ≥ 1 | 0.988 | – | – | –
S. pneumoniae D39V [8], first compound 0.65 µg/mL | ≥ 1 | 0.994 | – | – | –
S. pneumoniae D39V [8], first compound 1.3 µg/mL | 0.935 | 0.859 | 0.878 | 0.815 | –

Cn1c2cccc(=O)c-2nc2ccccc21 [Pyocyanin] + CN(N=O)C(=O)N[C@@H](C=O)[C@@H](O)[C@H](O)[C@H](O)CO [Streptozotocin]
Settings | Bliss interaction score
B. subtilis 168 [1] | -0.0597
S. aureus DSM 20231 [3] | 0.0692
S. aureus Newman [2] | -0.0417
S. pneumoniae D39V [4] | -0.0715

fitness, one replicate
Settings | partner 0.15 µg/mL | partner 0.3 µg/mL | partner 0.6 µg/mL | partner 1.2 µg/mL | partner 2.4 µg/mL | partner 4.8 µg/mL
B. subtilis 168 [5], first compound 1.25 µg/mL | 0.99 | 0.918 | 0.96 | – | – | –
B. subtilis 168 [5], first compound 2.5 µg/mL | 0.777 | 0.903 | 0.873 | – | – | –
B. subtilis 168 [5], first compound 5 µg/mL | 0.687 | 0.729 | 0.777 | – | – | –
S. pneumoniae D39V [8], first compound 1.3 µg/mL | – | – | – | 0.626 | 0.683 | 0.783

fitness
Settings | partner 0.15 µg/mL | partner 0.3 µg/mL | partner 0.6 µg/mL | partner 1.2 µg/mL | partner 2.4 µg/mL | partner 4.8 µg/mL
S. aureus DSM 20231 [7], first compound 1.25 µg/mL | 0.836 | 0.852 | 0.711 | – | – | –
S. aureus DSM 20231 [7], first compound 2.5 µg/mL | 0.803 | 0.772 | 0.676 | – | – | –
S. aureus DSM 20231 [7], first compound 5 µg/mL | 0.626 | 0.617 | 0.517 | – | – | –
S. aureus Newman [6], first compound 1.25 µg/mL | 0.788 | 0.633 | 0.494 | – | – | –
S. aureus Newman [6], first compound 2.5 µg/mL | 0.695 | 0.591 | 0.385 | – | – | –
S. aureus Newman [6], first compound 5 µg/mL | 0.265 | 0.249 | 0.167 | – | – | –
S. pneumoniae D39V [8], first compound 0.325 µg/mL | – | – | – | 0.951 | 0.912 | 0.928
S. pneumoniae D39V [8], first compound 0.65 µg/mL | – | – | – | 0.973 | 0.964 | 0.965

Cn1c2cccc(=O)c-2nc2ccccc21 [Pyocyanin] + CN[C@@H]1[C@H](O)[C@H](NC)[C@H]2O[C@@]3(O)C(=O)C[C@@H](C)O[C@H]3O[C@@H]2[C@H]1O [Spectinomycin]
Settings | Bliss interaction score
B. subtilis 168 [1] | -0.0432
S. aureus DSM 20231 [3] | -0.0492
S. aureus Newman [2] | 0.0628
S. pneumoniae D39V [4] | 0.0496

fitness
Settings | partner 2 µg/mL | partner 4 µg/mL | partner 8 µg/mL | partner 16 µg/mL
B. subtilis 168 [5], first compound 1.25 µg/mL | 0.907 | 0.914 | 0.861 | –
B. subtilis 168 [5], first compound 2.5 µg/mL | 0.887 | 0.876 | 0.857 | –
B. subtilis 168 [5], first compound 5 µg/mL | 0.762 | 0.757 | 0.708 | –
S. aureus DSM 20231 [7], first compound 1.25 µg/mL | – | 0.884 | 0.93 | 0.82
S. aureus DSM 20231 [7], first compound 2.5 µg/mL | – | 0.868 | 0.86 | 0.716
S. aureus DSM 20231 [7], first compound 5 µg/mL | – | 0.688 | 0.726 | 0.582
S. aureus Newman [6], first compound 1.25 µg/mL | – | 0.853 | 0.867 | 0.853
S. aureus Newman [6], first compound 2.5 µg/mL | – | 0.761 | 0.766 | 0.697
S. pneumoniae D39V [8], first compound 0.325 µg/mL | – | 0.995 | 0.955 | –
S. pneumoniae D39V [8], first compound 0.65 µg/mL | – | 0.96 | 0.944 | –

fitness, one replicate
Settings | S. aureus DSM 20231 [7] | S. aureus Newman [6] | S. pneumoniae D39V [8]
first compound 0.325 µg/mL, partner 16 µg/mL | – | – | 0.729
first compound 0.65 µg/mL, partner 16 µg/mL | – | – | 0.885
first compound 1.25 µg/mL, partner 32 µg/mL | 0.656 | 0.591 | –
first compound 1.25 µg/mL, partner 64 µg/mL | 0.0503 | 0.11 | –
first compound 1.3 µg/mL, partner 4 µg/mL | – | – | 0.776
first compound 1.3 µg/mL, partner 8 µg/mL | – | – | 0.792
first compound 2.5 µg/mL, partner 32 µg/mL | 0.638 | 0.489 | –
first compound 2.5 µg/mL, partner 64 µg/mL | 0.0416 | 0.0964 | –
first compound 5 µg/mL, partner 32 µg/mL | 0.342 | 0.268 | –
first compound 5 µg/mL, partner 64 µg/mL | 0.0295 | 0.0535 | –
